Data taken from patent US20200016159A1, “N3-CYCLICALLY SUBSTITUTED THIENOURACILS AND USE THEREOF” (Bayer Aktiengesellschaft, priority 2016, published 2020).

Target: T1, human adenosine A2b receptor (Homo sapiens, UniProt P29275)
T1 sequence (P29275 1-332): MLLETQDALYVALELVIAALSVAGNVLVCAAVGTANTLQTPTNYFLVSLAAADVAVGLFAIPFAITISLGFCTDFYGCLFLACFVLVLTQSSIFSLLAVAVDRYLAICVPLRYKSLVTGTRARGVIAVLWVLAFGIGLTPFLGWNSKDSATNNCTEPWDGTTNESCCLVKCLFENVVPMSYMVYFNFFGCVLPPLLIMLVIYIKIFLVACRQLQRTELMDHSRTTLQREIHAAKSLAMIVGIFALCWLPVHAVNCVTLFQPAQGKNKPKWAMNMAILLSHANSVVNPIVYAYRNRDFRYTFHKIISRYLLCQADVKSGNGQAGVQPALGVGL
Assay: Cellular in vitro reporter gene test for A2b receptor activity (antagonism of NECA)
Format: cell-based
Parameters: expressed in transfected cells; host or cells: CHO-K1 (Chinese hamster ovary) with CRE-luciferase reporter
Details: recombinant CHO-K1 cells, CRE-luciferase reporter, co-incubation with EC50 concentration of NECA, 3 hours
Description: The identification of selective antagonists of the human adenosine A2b receptor and the quantification of the efficacy and selectivity of the compounds according to the invention was carried out with the aid of recombinant cell lines for the human adenosine receptors A1, A2a, A2b and A3. These cell lines were originally derived from an ovarepithelial cell of the hamster (Chinese Hamster Ovary, CHO-K1, American Type Culture Collection, Manassas, Va. 20108, USA). In addition to the respective recombinantly expressed adenosine receptor for testing the efficacy at the A1, A2a and A2b receptors, the cell lines contain a reporter gene construct where expression of the firefly (Photinus pyralis) luciferase is under the control of a promoter which can be activated via intracellular signal cascades by stimulation of the receptors with the (not subtype-selective) adenosine receptor agonist NECA (5′-N-ethylcarboxamidoadenosine) [S. J. Hill, J. G. Baker, S. Rhees, Curr. Opin. Pharmacol. 1, 526-532 (2001)].
In the case of the A2a and A2b cell lines, this is a minimal promoter having a plurality of cAMP-responsive elements (CRE). Stimulation of the Gs-coupled A2b or A2a receptors by NECA ultimately leads, via formation of cAMP, to CRE-dependent induction of luciferase expression, which is detected 3 hours after the start of the incubation with NECA using a detection solution in a suitable luminometer. For testing the antagonists, initially, in a pre-experiment, the concentration of NECA which, at the test day in question, results in half-maximum stimulation of luciferase expression (EC50 concentration) is determined. By joint incubation of this EC50 concentration of NECA with the substances to be tested, it is possible to determine their antagonistic activity.
Table 1 below lists the IC50 values from the A2b receptor assay for individual working examples (in some cases as means of a plurality of independent individual determinations and rounded to two significant figures; it may also be the case here that various independent preparations of the respective working example have been used): […]

IC50 | SMILES
140 nM | Cc1c(Cn2nc[nH]c2=O)sc2c1c(=O)n(C1CC1)c(=O)n2C[C@H]1CCCO1 [Example 50, 3-Cyclopropyl-5-methyl-6-[(5-oxo-4,5-dihydro-1H-1,2,4-triazol-1-yl)methyl]-1-[(2R)-tetrahydrofuran-2-ylmethyl]thieno[2,3-d]pyrimidine-2,4(1H,3H)-dione]
26 nM | Cc1c(Cn2nc[nH]c2=O)sc2c1c(=O)n(C1CC(F)(F)C1)c(=O)n2CCC(F)(F)F [Example 124, 3-(3,3-Difluorocyclobutyl)-5-methyl-6-[(5-oxo-4,5-dihydro-H-1,2,4-triazol-1-yl)methyl]-1-(3,3,3-trifluoropropyl)thieno[2,3-d]pyrimidine-2,4(1H,3H)-dione]
93 nM | Cc1c(Cn2[nH]ccc2=O)sc2c1c(=O)n(C1CC(F)(F)C1)c(=O)n2CCC(F)(F)F [Example 313, 3-(3,3-Difluorocyclobutyl)-5-methyl-6-[(5-oxo-2,5-dihydro-1H-pyrazol-1-yl)methyl]-1-(3,3,3-trifluoropropyl)thieno[2,3-d]pyrimidine-2,4(1H,3H)-dione]
13 nM | CCC1CC1n1c(=O)c2c(C)c(CN3CCNC3=O)sc2n(CCOC)c1=O (racemic) [Example 300, 3-(2-Ethylcyclopropyl)-1-(2-methoxyethyl)-5-methyl-6-[(2-oxoimidazolidin-1-yl)methyl]thieno[2,3-d]pyrimidine-2,4(1H,3H)-dione]
130 nM | Cc1c(Cn2nc[nH]c2=O)sc2c1c(=O)n(C1CC1)c(=O)n2CC(F)F [Example 199, 3-Cyclopropyl-1-(2,2-difluoroethyl)-5-methyl-6-[(5-oxo-4,5-dihydro-H-1,2,4-triazol-1-yl)methyl]thieno[2,3-d]pyrimidine-2,4(1H,3H)-dione]
220 nM | COCCn1c(=O)n(C2CC2C(F)(F)F)c(=O)c2c(C)c(Cn3nc[nH]c3=O)sc21 (single isomer, unassigned) [Example 299, 1-(2-Methoxyethyl)-5-methyl-6-[(5-oxo-4,5-dihydro-H-1,2,4-triazol-1-yl)methyl]-3-[2-(trifluoromethyl)cyclopropyl]thieno[2,3-d]pyrimidine-2,4(1H,3H)-dione]
13 nM | Cc1c(CN2CCNC2=O)sc2c1c(=O)n(C1(C)CC1)c(=O)n2CC1CC1(F)F (single isomer, unassigned) [Example 64, 1-[(2,2-Difluorocyclopropyl)methyl]-5-methyl-3-(1-methylcyclopropyl)-6-[(2-oxoimidazolidin-1-yl)methyl]thieno[2,3-d]pyrimidine-2,4(1H,3H)-dione]
6.4 nM | COCCn1c(=O)n(C2CC2C)c(=O)c2c(C)c(CN3CCNC3=O)sc21 (racemic) [Example 258, 1-(2-Methoxyethyl)-5-methyl-3-(2-methylcyclopropyl)-6-[(2-oxoimidazolidin-1-yl)methyl]thieno[2,3-d]pyrimidine-2,4(1H,3H)-dione]
16 nM | Cc1c(CN2CCNC2=NC#N)sc2c1c(=O)n(C1CC1C)c(=O)n2CCOC(F)(F)F (racemic) [Example 264, [1-({5-Methyl-3-(2-methylcyclopropyl)-2,4-dioxo-1-[2-(trifluoromethoxy)ethyl]-1,2,3,4-tetrahydrothieno[2,3-d]pyrimidin-6-yl}methyl)imidazolidin-2-ylidene]cyanamide]
1.8 nM | Cc1c(CN2CCNC2=O)sc2c1c(=O)n(C1CC1)c(=O)n2CCOC(F)(F)F [Example 35, 3-Cyclopropyl-5-methyl-6-[(2-oxoimidazolidin-1-yl)methyl]-1-[2-(trifluoromethoxy)ethyl]thieno[2,3-d]pyrimidine-2,4(1H,3H)-dione]
240 nM | Cc1c(CN2CCNC2=O)sc2c1c(=O)n(C1CC1)c(=O)n2C[C@@H]1CCCO1 [Example 39, 3-Cyclopropyl-5-methyl-6-[(2-oxoimidazolidin-1-yl)methyl]-1-[(2S)-tetrahydrofuran-2-ylmethyl]thieno[2,3-d]pyrimidine-2,4(1H,3H)-dione]
11 nM | COC(=O)N=C1NCCN1Cc1sc2c(c1C)c(=O)n(C1COC1)c(=O)n2CCC(F)(F)F [Example 132, Methyl [1-{[5-methyl-3-(oxetan-3-yl)-2,4-dioxo-1-(3,3,3-trifluoropropyl)-1,2,3,4-tetrahydrothieno[2,3-d]pyrimidin-6-yl]methyl}imidazolidin-2-ylidene]carbamate]
140 nM | Cc1c(Cn2nc[nH]c2=O)sc2c1c(=O)n(C1CC1)c(=O)n2CC1CCC1(F)F (single isomer, unassigned; enantiomer 1) [Example 202, 3-Cyclopropyl-1-[(2,2-difluorocyclobutyl)methyl]-5-methyl-6-[(5-oxo-4,5-dihydro-1H-1,2,4-triazol-1-yl)methyl]thieno[2,3-d]pyrimidine-2,4(1H,3H)-dione (enantiomer 1)]
1.5 nM | Cc1c(CN2CCNC2=S)sc2c1c(=O)n(C1CC1)c(=O)n2CCC(F)(F)F [Example 10, 3-Cyclopropyl-5-methyl-6-[(2-thioxoimidazolidin-1-yl)methyl]-1-(3,3,3-trifluoropropyl)thieno[2,3-d]pyrimidine-2,4(1H,3H)-dione]
3.3 nM | Cc1c(CN2CCNC2=O)sc2c1c(=O)n(C1CC1C)c(=O)n2CCCC(F)(F)F (single isomer, unassigned) [Example 244, 5-Methyl-3-(2-methylcyclopropyl)-6-[(2-oxoimidazolidin-1-yl)methyl]-1-(4,4,4-trifluorobutyl)thieno[2,3-d]pyrimidine-2,4(1H,3H)-dione]
120 nM | CCCn1c(=O)n(C2CC2)c(=O)c2c(C)c(Cn3nc[nH]c3=O)sc21 [Example 195, 3-Cyclopropyl-5-methyl-6-[(5-oxo-4,5-dihydro-1H-1,2,4-triazol-1-yl)methyl]-1-propylthieno[2,3-d]pyrimidine-2,4(1H,3H)-dione]
180 nM | CO[C@H]1C[C@@H](n2c(=O)c3c(C)c(Cn4nc[nH]c4=O)sc3n(CCC(F)(F)F)c2=O)C1 [Example 158, 3-(cis-3-Methoxycyclobutyl)-5-methyl-6-[(5-oxo-4,5-dihydro-1H-1,2,4-triazol-1-yl)methyl]-1-(3,3,3-trifluoropropyl)thieno[2,3-d]pyrimidine-2,4(1H,3H)-dione]
12 nM | Cc1c(CN2CCNC2=O)sc2c1c(=O)n(C1CC1C)c(=O)n2CC1CCOC1 (single isomer, unassigned) [Example 293, 5-Methyl-3-(2-methylcyclopropyl)-6-[(2-oxoimidazolidin-1-yl)methyl]-1-(tetrahydrofuran-3-ylmethyl)thieno[2,3-d]pyrimidine-2,4(1H,3H)-dione]
64 nM | CCC1CC1n1c(=O)c2c(C)c(CN3CCNC3=O)sc2n(CCOC)c1=O (single isomer, unassigned) [Example 301, 3-(2-Ethylcyclopropyl)-1-(2-methoxyethyl)-5-methyl-6-[(2-oxoimidazolidin-1-yl)methyl]thieno[2,3-d]pyrimidine-2,4(1H,3H)-dione]
16 nM | COCCn1c(=O)n(C2CC2OC)c(=O)c2c(C)c(CN3CCNC3=O)sc21 (racemic) [Example 306, 3-(2-Methoxycyclopropyl)-1-(2-methoxyethyl)-5-methyl-6-[(2-oxoimidazolidin-1-yl)methyl]thieno[2,3-d]pyrimidine-2,4(1H,3H)-dione]
10 nM | COC(=O)N=C1NCCN1Cc1sc2c(c1C)c(=O)n(C1(C)CC1)c(=O)n2CCC(F)(F)F [Example 58, Methyl [1-{[5-methyl-3-(1-methylcyclopropyl)-2,4-dioxo-1-(3,3,3-trifluoropropyl)-1,2,3,4-tetrahydrothieno[2,3-d]pyrimidin-6-yl]methyl}imidazolidin-2-ylidene]carbamate]
16 nM | Cc1c(Cn2nc[nH]c2=O)sc2c1c(=O)n(C1CC(C)(C)C1)c(=O)n2CCC(F)(F)F [Example 168, 3-(3,3-Dimethylcyclobutyl)-5-methyl-6-[(5-oxo-4,5-dihydro-1,2,4-triazol-1-yl)methy]-1-(3,3,3-trifluoropropyl)thieno[2,3-d]pyrimidine-2,4(1H,3H)-dione]
320 nM | Cc1c(Cn2nc[nH]c2=O)sc2c1c(=O)n(C1CC1)c(=O)n2C[C@@H]1CCCO1 [Example 51, 3-Cyclopropyl-5-methyl-6-[(5-oxo-4,5-dihydro-1H-1,2,4-triazol-1-yl)methyl]-1-[(2S)-tetrahydrofuran-2-ylmethyl]thieno[2,3-d]pyrimidine-2,4(1H, 3H)-dione]
